For data set [1] the following is noted: human, in vivo, iv; cited from earlier work.

SMILES strings stand for the structures.

As for `Nc1nc(O)c2ncn(COC(CO)CO)c2n1` [Ganciclovir], the “patients experiencing bone marrow toxicity resulting in neutropenia” value in data set [1] is listed as 30-50%. In the case of `O=C([O-])c1ccccc1-c1c2ccc(=O)cc-2oc2cc([O-])ccc12.[Na+].[Na+]` [sodium fluorescein, Sodium fluorescein], the “in vivo release behaviour (fluorescence in urine)” value is recorded as “long-term constant release”.
